Where a name gives a salt, the structure may show the parent alone. Read-outs that look alike come from different tables or passages of the source.
System: aCD3/aCD28-stimulated human PBMCs
Assay: Cytokine production in aCD3/aCD28 stimulated human PBMCs
Format: cell-based
Conditions: PBMC, 18 h
Procedure: In order to determine the immune modulatory effect of compounds of compounds of the present invention in human PBMCs, compounds were assessed in the following assay set-up:
Buffy coats were obtained from a local hospital, diluted 3 fold with PBS and layered onto an isotonic Ficoll separating solution d=1.077 g/mL in 50 mL centrifuge tubes. The tubes were centrifuged at 914 g for 25 min at room temperature with the brakes off. The PBMC layer was removed and washed twice with ice-cold PBS. Erythrocytes were lysed by addition of ddH2O and cells were resuspended in X-Vivo15 (Lonza).
1e6 cells/mL were stimulated with soluble anti CD3/CD28 antibodies (1 μg/mL both, clones OKT3 and 28.2) in the presence of described compounds. Cells were incubated for 18 h at 37° C., 5% CO2. Assay plates were centrifuged at 400 g for 5 min and supernatants harvested. Cytokine concentration in tissue culture supernatants were determined with MSD or HTRF kits (MSD and Cisbio), according to manufacturer's instructions.

[1] = enhancement of IFN-γ production, read-out: Activity Class IFN-γ
[2] = enhancement of IL-2 production, read-out: Activity Class IL-2

SMILES | EC50 [1] | EC50 [2]
COCCNC(=O)c1ccc2c(c1)N(Cc1ccc(Cl)cc1)C(=O)[C@@H](N)CS2 [Example 20, (3R)-3-amino-5-[(4-chlorophenyl)methyl]-N-(2-methoxyethyl)-4-oxo-2,3,4,5-tetrahydro-1,5-benzothiazepine-7-carboxamide hydrochloride] | 1.58 to 5.01 µM | > 5.01 µM
CC(C)NC(=O)c1ccc2c(c1)N(Cc1ccc(Cl)cc1)C(=O)[C@@H](N)CS2 [Example 61, (3R)-3-amino-5-[(4-chlorophenyl)methyl]-4-oxo-N-(propan-2-yl)-2,3,4,5-tetrahydro-1,5-benzothiazepine-7-carboxamide hydrochloride] | 1.58 to 5.01 µM | > 5.01 µM
CN(C)c1cc2c(cc1C(=O)NCc1ccccc1)N(Cc1ccc(Cl)cc1)C(=O)[C@@H](N)CS2(=O)=O [Example 116, (3R)-3-amino-N-benzyl-5-[(4-chlorophenyl)methyl]-8-(dimethylamino)-1,1,4-trioxo-2,3,4,5-tetrahydro-1λ^6,5-benzothiazepine-7-carboxamide hydrochloride] | 1.58 to 5.01 µM | > 5.01 µM
COc1ccc(CN2C(=O)[C@@H](N)CS(=O)(=O)c3cc(F)c(C(=O)NC4CC4(F)F)cc32)cc1C(F)(F)F (stereo partly drawn) [Example 117, (3R)-3-amino-N-(2,2-difluorocyclopropyl)-8-fluoro-5-{[4-methoxy-3-(trifluoromethyl)phenyl]methyl}-1,1,4-trioxo-2,3,4,5-tetrahydro-1λ^6,5-benzothiazepine-7-carboxamide hydrochloride] | < 1.58 µM | > 5.01 µM
C[C@@H]1[C@H](N)C(=O)N(Cc2ccc(Cl)cc2)c2cc(C(=O)NCCCC(F)(F)F)c(F)cc2S1(=O)=O [Example 118, (2R,3R)-3-amino-5-[(4-chlorophenyl)methyl]-8-fluoro-2-methyl-1,1,4-trioxo-N-(4,4,4-trifluorobutyl)-2,3,4,5-tetrahydro-1λ^6,5-benzothiazepine-7-carboxamide hydrochloride] | < 1.58 µM | 1.58 to 5.01 µM
Cc1nc(-c2ccc(CN3C(=O)[C@@H](N)CS(=O)(=O)c4ccc(C(=O)NCCCC(F)(F)F)cc43)cc2)no1 [Example 119, (3R)-3-amino-5-{[4-(5-methyl-1,2,4-oxadiazol-3-yl)phenyl]methyl}-1,1,4-trioxo-N-(4,4,4-trifluorobutyl)-2,3,4,5-tetrahydro-1λ^6,5-benzothiazepine-7-carboxamide hydrochloride] | 1.58 to 5.01 µM | > 5.01 µM
COCCNC(=O)c1cc2c(cc1F)S(=O)(=O)C[C@H](N)C(=O)N2Cc1ccc(Cl)cc1 [Example 120, (3R)-3-amino-5-[(4-chlorophenyl)methyl]-8-fluoro-N-(2-methoxyethyl)-1,1,4-trioxo-2,3,4,5-tetrahydro-1λ^6,5-benzothiazepine-7-carboxamide hydrochloride] | > 5.01 µM | > 5.01 µM
Cc1nc(-c2ccc(CN3C(=O)[C@@H](N)CS(=O)(=O)c4ccc(C(=O)NC5CC5(F)F)cc43)cc2)no1 (stereo partly drawn) [Example 121, (3R)-3-amino-N-(2,2-difluorocyclopropyl)-5-{[4-(5-methyl-1,2,4-oxadiazol-3-yl)phenyl]methyl}-1,1,4-trioxo-2,3,4,5-tetrahydro-1λ^6,5-benzothiazepine-7-carboxamide hydrochloride] | > 5.01 µM | > 5.01 µM
N[C@H]1CS(=O)(=O)c2cc(F)c(C(=O)NCc3ccc(F)cc3)cc2N(Cc2nnc(C3CC3)s2)C1=O [Example 138, (3R)-3-amino-5-[(5-cyclopropyl-1,3,4-thiadiazol-2-yl)methyl]-8-fluoro-N-[(4-fluorophenyl)methyl]-1,1,4-trioxo-2,3,4,5-tetrahydro-1λ^6,5-benzothiazepine-7-carboxamide hydrochloride] | 1.58 to 5.01 µM | > 5.01 µM
N[C@H]1CS(=O)(=O)c2cc(F)c(C(=O)NC3CCOCC3)cc2N(Cc2ccc(Cl)cc2)C1=O [Example 144, (3R)-3-amino-5-[(4-chlorophenyl)methyl]-8-fluoro-N-(oxan-4-yl)-1,1,4-trioxo-2,3,4,5-tetrahydro-1λ^6,5-benzothiazepine-7-carboxamide] | 1.58 to 5.01 µM | > 5.01 µM
N[C@H]1CS(=O)(=O)c2ccc(C(=O)N[C@@H]3C[C@@H]3F)cc2N(Cc2ccc(Cl)cc2)C1=O [Example 147, (3R)-3-amino-5-[(4-chlorophenyl)methyl]-N-[(1R,2S)-2-fluorocyclopropyl]-1,1,4-trioxo-2,3,4,5-tetrahydro-1λ^6,5-benzothiazepine-7-carboxamide] | > 5.01 µM | > 5.01 µM
N[C@H]1CS(=O)(=O)c2ccc(C(=O)NC3CC(F)(F)C3)cc2N(Cc2ccccc2F)C1=O [Example 148, (3R)-3-amino-N-(3,3-difluorocyclobutyl)-5-[(2-fluorophenyl)methyl]-1,1,4-trioxo-2,3,4,5-tetrahydro-1λ^6,5-benzothiazepine-7-carboxamide] | 1.58 to 5.01 µM | > 5.01 µM
COc1cccc(CN2C(=O)[C@@H](N)CS(=O)(=O)c3ccc(C(=O)NC4CC(F)(F)C4)cc32)c1 [Example 149, (3R)-3-amino-N-(3,3-difluorocyclobutyl)-5-[(3-methoxyphenyl)methyl]-1,1,4-trioxo-2,3,4,5-tetrahydro-1λ^6,5-benzothiazepine-7-carboxamide] | > 5.01 µM | > 5.01 µM
N[C@H]1CS(=O)(=O)c2ccc(C(=O)N[C@@H]3CCOC3)cc2N(Cc2ccc(Cl)cc2)C1=O [Example 156, (3R)-3-amino-5-[(4-chlorophenyl)methyl]-1,1,4-trioxo-N-[(3R)-oxolan-3-yl]-2,3,4,5-tetrahydro-1λ^6,5-benzothiazepine-7-carboxamide] | > 5.01 µM | > 5.01 µM
N[C@H]1CS(=O)(=O)c2ccc(C(=O)NCC3CCOC3)cc2N(Cc2ccc(Cl)cc2)C1=O (stereo partly drawn) [Example 157, (3R)-3-amino-5-[(4-chlorophenyl)methyl]-1,1,4-trioxo-N-[(oxolan-3-yl)methyl]-2,3,4,5-tetrahydro-1λ^6,5-benzothiazepine-7-carboxamide] | > 5.01 µM | > 5.01 µM
COc1ccc(CN2C(=O)[C@@H](N)CS(=O)(=O)c3ccc(C(=O)N[C@@H]4CC4(F)F)cc32)cc1 [Example 161, (3R)-3-amino-N-[(1R)-2,2-difluorocyclopropyl]-5-[(4-methoxyphenyl)methyl]-1,1,4-trioxo-2,3,4,5-tetrahydro-1λ^6,5-benzothiazepine-7-carboxamide] | > 5.01 µM | > 5.01 µM
N[C@H]1CS(=O)(=O)c2ccc(C(=O)NCCCC(F)(F)F)cc2N(Cc2ccccc2)C1=O [Example 162, (3R)-3-amino-5-benzyl-1,1,4-trioxo-N-(4,4,4-trifluorobutyl)-2,3,4,5-tetrahydro-1λ^6,5-benzothiazepine-7-carboxamide] | > 5.01 µM | > 5.01 µM
N[C@H]1CS(=O)(=O)c2ccc(C(=O)NCC3CCOCC3)cc2N(Cc2ccc(OC(F)F)cc2)C1=O [Example 164, (3R)-3-amino-5-{[4-(difluoromethoxy)phenyl]methyl}-N-[(oxan-4-yl)methyl]-1,1,4-trioxo-2,3,4,5-tetrahydro-1λ^6,5-benzothiazepine-7-carboxamide] | > 5.01 µM | > 5.01 µM
C[C@@H](NC(=O)c1ccc2c(c1)N(Cc1ccc(Cl)cc1)C(=O)[C@@H](N)CS2(=O)=O)C1CCOCC1 [Example 166, (3R)-3-amino-5-[(4-chlorophenyl)methyl]-N-[(1R)-1-(oxan-4-yl)ethyl]-1,1,4-trioxo-2,3,4,5-tetrahydro-1λ^6,5-benzothiazepine-7-carboxamide] | > 5.01 µM | > 5.01 µM
N[C@H]1CS(=O)(=O)c2ccc(C(=O)N[C@@H]3CC3(F)F)cc2N(Cc2ccccc2)C1=O [Example 167, (3R)-3-amino-5-benzyl-N-[(1R)-2,2-difluorocyclopropyl]-1,1,4-trioxo-2,3,4,5-tetrahydro-1λ^6,5-benzothiazepine-7-carboxamide] | > 5.01 µM | > 5.01 µM
Cc1ccc(CNC(=O)c2ccc3c(c2)N(Cc2ccc(Cl)cc2)C(=O)[C@@H](N)CS3(=O)=O)cn1 [Example 168, (3R)-3-amino-5-[(4-chlorophenyl)methyl]-N-[(6-methylpyridin-3-yl)methyl]-1,1,4-trioxo-2,3,4,5-tetrahydro-1λ^6,5-benzothiazepine-7-carboxamide] | 1.58 to 5.01 µM | > 5.01 µM
N#Cc1ccc(CN2C(=O)[C@@H](N)CS(=O)(=O)c3cc(F)c(C(=O)NCc4ccc(F)cc4)cc32)cc1 [Example 170, (3R)-3-amino-5-[(4-cyanophenyl)methyl]-8-fluoro-N-[(4-fluorophenyl)methyl]-1,1,4-trioxo-2,3,4,5-tetrahydro-1λ^6,5-benzothiazepine-7-carboxamide] | < 1.58 µM | < 1.58 µM
COCCOCCNC(=O)c1cc2c(cc1F)S(=O)(=O)C[C@H](N)C(=O)N2Cc1ccc(Cl)cc1 [Example 172, (3R)-3-amino-5-[(4-chlorophenyl)methyl]-8-fluoro-N-[2-(2-methoxyethoxy)ethyl]-1,1,4-trioxo-2,3,4,5-tetrahydro-1λ^6,5-benzothiazepine-7-carboxamide] | 1.58 to 5.01 µM | > 5.01 µM
C#CCCNC(=O)c1cc2c(cc1F)S(=O)(=O)C[C@H](N)C(=O)N2Cc1ccc(Cl)cc1 [Example 173, (3R)-3-amino-N-(but-3-yn-1-yl)-5-[(4-chlorophenyl)methyl]-8-fluoro-1,1,4-trioxo-2,3,4,5-tetrahydro-1λ^6,5-benzothiazepine-7-carboxamide] | 1.58 to 5.01 µM | > 5.01 µM

Source: patent publication US10472341B2, “Bicyclic tetrahydrothiazepine derivatives useful for the treatment of neoplastic and/or infectious diseases” (APEIRON BIOLOGICS AG, priority 2015, dated 2019)
